Reference: patent US20080171742A1, “4-(Pyrid-2-Yl) Amino Substituted Pyrimidine as Protein Kinase Inhibitors” (AsraZeneca, priority 2005, published 2008)

System: murine fibroblasts (NIH3T3) over-expressing human IGF-1 receptor
Assay: Inhibition of IGF-stimulated cell proliferation (BrdU incorporation), Test (c)
Type: cell-based
Conditions: NIH3T3/IGFR cells, IGF-1 20 ng/ml
Protocol: The construction of murine fibroblasts (NIH3T3) over-expressing human IGF-1 receptor has been described by Lammers et al (EMBO J, 8, 1369-1375, 1989). These cells show a proliferative response to IGF-I which can be measured by BrdU incorporation into newly synthesised DNA. Compound potency was determined as causing inhibition of the IGF-stimulated proliferation in the following assay:
Compounds are initially dissolved in DMSO to 10 mM, followed by dilutions in DMEM+1% FCS+glutamine to give a range from […] in 1-0.00045% DMSO final concentration in assay well.
Exponentially growing NIH3T3/IGFR cells were harvested and seeded in complete growth medium into a flat-bottomed 96 well tissue culture grade plate (Costar 3525) at 1.2×10^4 cells per well in a volume of 100 μl.
Growth medium was carefully removed from each well using a multi-channel pipette. Wells were carefully rinsed three times with 200 μl with HBSS. 100 μl of starvation medium was added to each well and the plate was re-incubated for 24 hours.
50 μl of a 4× concentrate of test compound was added to appropriate wells. Cells were incubated for 30 minutes with compound alone before the addition of IGF. […]
The incorporation of BrdU in the cells (after a 4 h incorporation period) was assessed using the BrdU Cell Proliferation Elisa according to the manufacturer's protocol.

Compound | IC50
Cc1cc(Nc2ccccn2)nc(N2CCC[C@H]2c2cc(-c3ccccn3)no2)n1 [Example 1, S-6-Methyl-2-{2-[3-(pyrid-2-yl)isoxazol-5-yl]pyrrolidin-1-yl}-4-(pyrid-2-ylamino)pyrimidine] | 0.31 µM
Cc1ccc(Nc2cc(C)nc(N3CCC[C@H]3c3cc(-c4ccccn4)no3)n2)nc1 [Example 13, S-6-Methyl-2-{2-[3-(pyrid-2-yl)isoxazol-5-yl]pyrrolidin-1-yl}-4-(5-methylpyrid-2-ylamino)pyrimidine] | 0.13 µM
